# In patent US20140296164A1, “Compositions and methods of use for cell targeted inhibitors of the Cystic Fibrosis transmembrane regulator associated ligand” (CALISTA THERAPEUTICS, INC., priority 2013, published 2014):
# Entries after “also recorded” stand apart in the source; their conditions may differ. No end group written: not given here.
# Legend:
# deltaF508-CFTR [1] = experiment: CFTR agonist evoked short circuit (ISC) current, Ussing epithelial voltage clamp; format: cell-based, human; conditions: for summed ISC currents compared with Vehicle treatment: apical, one day at 27° C., CFFT006F cells, Dunnett's test
# Excerpt: To test for bioeffectiveness, for our exemplary invention to stabilize CFTR, we measured the chloride transport function homozygous deltaF508-CFTR cystic fibrosis human bronchial epithelial cells grown and differentiated on Snapwell™ filter inserts as CFTR agonist evoked short circuit (ISC) current. The ISC was the output of an Ussing epithelial voltage clamp apparatus after amiloride block of sodium current through the epithelial sodium channel (ENaC). ENaC current was monitored as the amiloride sensitive current component of the ISC. The objective of this study was to measure the ability of various compounds, including but limited to CT002, CT008, CT003, CT004, CT005, CT006, CT007, and AT0011 (peptide control), to restore function to defective deltaF508-CFTR in CFhBE cell monolayers (epithelia) after a one day incubation period on the apical surface of the epithelia. See FIG. 4 for sequences and ID numbers.
# (§1) CT003, CT004, CT005, CT006, CT007, and AT0011 were combined with the known corrector VX-809. CT002 (WQVTRV) was incubated with 10 μL of the cell permeability enhancing reagent BioPORTER™. Statistical comparisons were made using Dunnett's test and Student's t-test with significance evaluated at P<0.05. The ISC current polarity convention used here records apical to basolateral sodium current and basolateral to apical chloride current as negative.
# Referring now to the drawings, a first exemplary embodiment is illustrated and generally indicated in FIGS. 1, 2 and 3, which is the measurement of the chloride transport function of homozygous deltaF508-CFTR cystic fibrosis human bronchial epithelial cells grown and differentiated on Snapwell™ filter inserts as CFTR agonist evoked short circuit (ISC) current. The ISC was the output of an Ussing epithelial voltage clamp apparatus after amiloride block of sodium current through the epithelial sodium channel (ENaC). ENaC current was monitored as the amiloride sensitive current component of the ISC. The objective of this study was to measure the ability of candidate Test Articles and controls (CT002 (WQVTRV+BIOPORTER), CT008 (WQVTRV alone), CT003, CT004, CT005, CT006, CT007, and AT0011 control) to restore function to defective deltaF508-CFTR in CFhBE cell monolayers (epithelia) after a one day incubation period on the apical surface of the epithelia. These peptide compounds differed in their amino acid sequence to optimize solubility, intracellular permeability, stability and toxicity (CT003-CT007 shown here). The control peptides were non-optimized sequences (CT002 and CT008) and an off-target peptide control (AT0011).
# as §1, with “VX-809 and” for “VX-809.”, “CT002” for “CT002 (WQVTRV)”, “used” for “used here”
# All incubations were performed at 27±0.5° C. Test Articles were applied at their final concentrations to the apical surface of the cellular monolayers in 200 μL of Opti-MEM Reduced Serum Medium without addition of serum. […] Test Article incubations were approximately 24 hours. 150 μL of cycloheximide (20 μg/mL) was applied to the apical surface of the epithelia for the final 2 hours of peptide treatment, total volume 350 μL. Cycloheximide prevented new protein synthesis that might be otherwise conflated with test article efficacy. This incubation protocol mimics the dilution and clearance effect that will be encountered by topical delivery to the lungs. Test articles are applied at t=0 h, 10 μM in 200 μL, to the apical surface. 2000 μL of basolateral medium provides an immediate dilution effect (test article: 0.91 μM), then at t=22 h, a further […] of cycloheximide containing solution is further added, (test article: 0.85 μM). […]
# deltaF508-CFTR [2] = conditions: cited from earlier work
# [3] = tested on: epithelial sodium channel (ENaC); experiment: Amiloride sensitive sodium current component of the ISC, Ussing assay; format: cell-based, human; conditions: Test Article 10 uM + VX-809 1 uM, Student's test
# Excerpt: To test for bioeffectiveness, for our exemplary invention to stabilize CFTR, we measured the chloride transport function homozygous deltaF508-CFTR cystic fibrosis human bronchial epithelial cells grown and differentiated on Snapwell™ filter inserts as CFTR agonist evoked short circuit (ISC) current. The ISC was the output of an Ussing epithelial voltage clamp apparatus after amiloride block of sodium current through the epithelial sodium channel (ENaC). ENaC current was monitored as the amiloride sensitive current component of the ISC. […]
# Referring now to the drawings, a first exemplary embodiment is illustrated and generally indicated in FIGS. 1, 2 and 3, which is the measurement of the chloride transport function of homozygous deltaF508-CFTR cystic fibrosis human bronchial epithelial cells grown and differentiated on Snapwell™ filter inserts as CFTR agonist evoked short circuit (ISC) current. […] ENaC current was monitored as the amiloride sensitive current component of the ISC. […]
# Ussing Assay: All Ussing assays were performed at 27±0.5° C. and lasted for approximately 1 hour 40 minutes. The temperature was monitored throughout the experiment using a thermistor probe connected to the data acquisition system and inserted into the bath solution of one chamber. […]
# [4] = Solubility of peptide sequences; format: physicochemical
# [5] = Test Article 10 uM + VX-809 1 uM, Student's t-test
compound,measurement,setting,value
"Cc1ccc(NC(=O)C2(c3ccc4c(c3)OC(F)(F)O4)CC2)nc1-c1cccc(C(=O)O)c1 [VX-809, reference compound]",summed ISC currents compared with Vehicle treatment,deltaF508-CFTR [1]; VX-809 1 μM alone,significantly above Vehicle treatment
same,summed ISC currents compared with expected level,"deltaF508-CFTR [1]; VX-809 1 μM, apical incubation only, not in basolateral media",less than the expected level
ANSRWPTSII,function without BIOPORTER,deltaF508-CFTR [2],neither sequence functions
Acety-YGRKKRRQRRR-glycoyl-WQVTRV-amide (Ac-YGRKKRRQRRR; not fully specified (C-terminus)) [CT007],amiloride sensitive sodium current generated by ENaC compared to VX-809 alone,[3],significantly increased
same,lower concentration needed versus prior sequences with BIOPORTER,deltaF508-CFTR [1]; 10 μM CT007 vs 500 μM WQVTRV,> 50 times
same,improvement in reported efficacy versus WQVTRV and ANSRWPTSII with BIOPORTER,"deltaF508-CFTR [1]; 10 uM vs 500 μM, at least",fifty-fold
same,additive efficacy to VX-809,"deltaF508-CFTR [1]; CT007 10 uM + VX-809 1 uM, CF bronchial epithelium, n=4",36%
same,response to CFTRinh-172 compared with VX-809 1 uM,deltaF508-CFTR [1]; [5],significantly increased
same,summed ISC currents (CFTR chloride current restoration) compared with VX-809 1 μM treatment,deltaF508-CFTR [1]; [5],significantly greater; also recorded: significantly above VX-809 1 μM treatment
same,summed ISC currents compared with Vehicle treatment,deltaF508-CFTR [1]; Test Article 10 uM + VX-809 1 uM,significantly above Vehicle treatment
same,duration of therapeutic drug action,"deltaF508-CFTR [1]; after transient topical apical dosing, test article removed before Ussing assay",at least 26 hours
"WQVTRV [CT008, WQVTRV]",solubility at the effective concentration,[4]; 500 μM,largely insoluble
same,solubility in water,[4]; water / aqueous fluids,insoluble in water
